Measurements published in patent US20060110781A1, “Cholesterol detection reagent” (RIKEN, priority 2002, published 2006).

Test system: NPC fibroblasts
Assay: Fate of cell surface fPEG-Chol, incorporation into meshwork structure
Conditions: for incorporation of fPEG-Chol into meshwork: inhibitor 5 μg/ml before 1 μM fPEG-Chol

## C[C@H]1CCC/C=C/[C@@H]2C[C@H](O)C[C@H]2[C@H](O)/C=C/C(=O)O1 [Brefeldin A]
  incorporation of fPEG-Chol into meshwork: did not significantly affect

## C=C1[C@@H](C)[C@H]2[C@H](Cc3ccccc3)NC(=O)[C@]23OC(=O)/C=C/[C@H](O)CCC[C@@H](C)C/C=C/[C@H]3[C@@H]1O [cytochalasin B]
5 μg/ml, 30 minutes, 1 mg/ml rhodamine dextran
  internalization of rhodamine dextran: did not affect
  incorporation of fPEG-Chol into meshwork: meshwork structure was disappeared

## COC(=O)Nc1nc2ccc(C(=O)c3cccs3)cc2[nH]1 [nocodazole]
  incorporation of fPEG-Chol into meshwork: did not significantly affect
